Read-outs that look alike come from different tables or passages of the source.
What was measured:
intracellular HBV DNA = assay: Real-time PCR for intracellular HBV DNA in HepAD38 cells; type: cell-based; details: 65 hours treatment
Protein = Protein (Hepatitis B virus genotype D subtype ayw, UniProt P03146); assay: Protein inhibition rate / EC50 (Table 1, no method described); type: biochemical
[1] = Cell viability assay (EZ-Cytox), cytotoxicity; type: cell-based; details: human, HepAD38 cells; for viability at 65 h, 100 µM: read-out: Cytotoxicity % Livability (@100 μM)
Method: HepAD38 cells were cultured for 2 days in Dulbecco's Modified Eagle's medium (Welgene, LM001-05) supplemented with 10% FBS without tetracycline. […] After 65 hours of treatment, viability was measured using EZ-Cytox cell viability assay kit (Daeil Lab Service) according to the manufacturer's instructions. The absorbance was measured at 450 nm using a spectrophotometer (Spark, Tecan).

[2] = Hepatitis B virus, HePAD38, 65 h

Sequence of Protein (P03146 whole entry): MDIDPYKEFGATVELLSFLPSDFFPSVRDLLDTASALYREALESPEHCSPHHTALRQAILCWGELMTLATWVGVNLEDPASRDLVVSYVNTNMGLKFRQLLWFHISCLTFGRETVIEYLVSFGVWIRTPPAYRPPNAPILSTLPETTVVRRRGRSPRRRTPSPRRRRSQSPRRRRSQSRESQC

SMILES | IC50 (intracellular HBV DNA; [2]) [µM] | EC50 (Protein) [µM] | inhibition at 30 µM (Protein) [%] | CC50 at 65 h [1] [µM] | viability at 65 h, 100 µM [1] [%] | IC50 (intracellular HBV DNA; read-out: IC50) [µM]
COc1ccc(N(Cc2nn(C)c3c2CCCC3)C(=O)Nc2ccc(F)c(Cl)c2)cc1 [Example 36, 3-(3-chloro-4-fluorophenyl)-1-(4-methoxyphenyl)-1-((1-methyl-4,5,6,7-tetrahydro-1H-indazol-3-yl)methyl)urea] | 0.036 | 9.2 | 91.6 | > 100 | 100 | 
COc1ccc(N(Cc2n[nH]c3ccccc23)C(=O)Nc2ccc(F)c(Cl)c2)cn1 [Example 43, 1-((1H-indazol-3-yl)methyl)-3-(3-chloro-4-fluorophenyl)-1-(6-methoxypyridin-3-yl)urea] | 0.043 | 6.06 | 96.7 | > 100 | 92 | 
COc1ccc(N(Cc2n[nH]c3c2CC(O)CC3)C(=O)Nc2ccc(F)c(Cl)c2)cn1 (stereo not shown) [Example 48, 3-(3-chloro-4-fluorophenyl)-1-((5-hydroxy-4,5,6,7-tetrahydro-1H-indazol-3-yl)methyl)-1-(6-methoxypyridin-3-yl)urea] | 1.1 | 6.4 | 90 | > 100 |  | 
COc1cc(N(Cc2n[nH]c3c2CCCC3)C(=O)Nc2ccc(F)c(Cl)c2)ccn1 [Example 54, 3-(3-chloro-4-fluorophenyl)-1-(2-methoxypyridin-4-yl)-1-((4,5,6,7-tetrahydro-1H-indazol-3-yl)methyl)urea] | 0.013 | 3.5 | 84 | 40.6 | 17.4 | 
COc1ccc(N(Cc2n[nH]c3c2CSCC3)C(=O)Nc2ccc(F)c(Cl)c2)cn1 [Example 45, 3-(3-chloro-4-fluorophenyl)-1-(6-methoxypyridin-3-yl)-1-((1,4,6,7-tetrahydrothiopyrano[4,3-c]pyrazol-3-yl)methyl)urea] | 0.012 | 3.3 | 95.6 | > 50 | 3.3 | 
COc1ccc(N(Cc2cc(C(C)C)[nH]n2)C(=O)Nc2ccc(F)c(Cl)c2)cn1 [Example 58, 3-(3-chloro-4-fluorophenyl)-1-((5-isopropyl-1H-pyrazol-3-yl)methyl)-1-(6-methoxypyridin-3-yl)urea] | 0.16 | 5 | 93.1 | > 100 | 92.7 | 
COc1ccc(N(Cc2cc(OC)[nH]n2)C(=O)Nc2ccc(F)c(Cl)c2)cn1 [Example 64, 3-(3-chloro-4-fluorophenyl)-1-((5-methoxy-1H-pyrazol-3-yl)methyl)-1-(6-methoxypyridin-3-yl)urea] | 0.18 | 5.8 | 91.1 | > 100 | 100 | 
COc1ccc(N(Cc2n[nH]c3c2CCCO3)C(=O)Nc2ccc(F)c(Cl)c2)cn1 [Example 63, 3-(3-chloro-4-fluorophenyl)-1-(6-methoxypyridin-3-yl)-1-((1,4,5,6-tetrahydropyrano[2,3-c]pyrazol-3-yl)methyl)urea] | 0.014 | 2.6 | 90.5 | > 100 | 94.5 | 
COc1ccc(N(Cc2cn(C)nc2C)C(=O)Nc2ccc(F)c(Cl)c2)cc1 [Example 159, 3-(3-chloro-4-fluorophenyl)-1-((1,3-dimethyl-1H-pyrazol-4-yl)methyl)-1-(4-methoxyphenyl)urea] | > 3.3 |  | 4 |  |  | 
COc1ccc(N(Cc2cc(C)nn2C)C(=O)Nc2ccc(F)c(Cl)c2)cc1 [Example 108, 3-(3-chloro-4-fluorophenyl)-1-((1,3-dimethyl-1H-pyrazol-5-yl)methyl)-1-(4-methoxyphenyl)urea] | 0.36 | 5.3 | 89.9 |  |  | 
COc1cc(N(Cc2cc(C(F)(F)F)[nH]n2)C(=O)Nc2ccc(F)c(Cl)c2)cnc1C#N [Example 118, 3-(3-chloro-4-fluorophenyl)-1-(6-cyano-5-methoxypyridin-3-yl)-1-((5-(trifluoromethyl)-1H-pyrazol-3-yl)methyl)urea] | > 1.1 |  |  | < 50 | 31.3 | 
COc1ccc(N(Cc2n[nH]c3c2COC3)C(=O)Nc2ccc(F)c(Cl)c2)cn1 [Example 69, 3-(3-chloro-4-fluorophenyl)-1-((4,6-dihydro-1H-furo[3,4-c]pyrazol-3-yl)methyl)-1-(6-methoxypyridin-3-yl)urea] | 0.021 |  |  | > 100 | 94.5 | 
COc1cc(N(Cc2n[nH]c3c2OCCO3)C(=O)Nc2ccc(F)c(Cl)c2)ccn1 [Example 71, 3-(3-chloro-4-fluorophenyl)-1-((5,6-dihydro-1H-[1,4]dioxino[2,3-c]pyrazol-3-yl)methyl)-1-(2-methoxypyridin-4-yl)urea] | 0.076 |  |  | > 100 |  | 
COc1ncc(N(Cc2n[nH]c(C(F)F)c2Br)C(=O)Nc2ccc(F)c(C(F)F)c2)cn1 [Example 197, 1-((4-bromo-5-(difluoromethyl)-1H-pyrazol-3-yl)methyl)-3-(3-(difluoromethyl)-4-fluorophenyl)-1-(2-methoxypyrimidin-5-yl)urea] | 0.019 |  |  | 79.1 | 11.5 | 
COc1ncc(N(Cc2cc(C(F)(F)F)[nH]n2)C(=O)Nc2cccc(C#N)c2)cn1 [Example 144, 3-(3-cyanophenyl)-1-(2-methoxypyrimidin-5-yl)-1-((5-(trifluoromethyl)-1H-pyrazol-3-yl)methyl)urea] | 0.22 |  |  | 59.9 | 6.3 | 
COc1cc(N(Cc2cc(C(F)F)[nH]n2)C(=O)Nc2ccc(F)c(Cl)c2)cnn1 [Example 99, 3-(3-chloro-4-fluorophenyl)-1-((5-(difluoromethyl)-1H-pyrazol-3-yl)methyl)-1-(6-methoxypyridazin-4-yl)urea] | 0.89 |  |  | > 100 | 83.4 | 
COc1cncc(N(Cc2n[nH]c3c2COCC3)C(=O)Nc2ccc(F)c(Cl)c2)c1 [Example 75, 3-(3-chloro-4-fluorophenyl)-1-(5-methoxypyridin-3-yl)-1-((1,4,6,7-tetrahydropyrano[4,3-c]pyrazol-3-yl)methyl)urea] | 0.036 |  |  | > 100 | 92.1 | 
COc1ncc(N(Cc2cc(C(F)(F)F)[nH]n2)C(=O)Nc2cccc(C(F)(F)F)n2)cn1 [Example 225, 1-(2-methoxypyrimidin-5-yl)-1-((5-(trifluoromethyl)-1H-pyrazol-3-yl)methyl)-3-(6-(trifluoromethyl)pyridin-2-yl)urea] | 0.21 |  |  | > 100 | 105 | 
COc1ncc(N(Cc2n[nH]c(C(F)F)c2C(C)(C)O)C(=O)Nc2ccc(F)c(Cl)c2)cn1 [Example 92, 3-(3-chloro-4-fluorophenyl)-1-((5-(difluoromethyl)-4-(2-hydroxypropan-2-yl)-1H-pyrazol-3-yl)methyl)-1-(2-methoxypyrimidin-5-yl)urea] | > 1.1 |  |  | > 100 |  | 
N#Cc1cc(N(Cc2n[nH]c3c2CCCO3)C(=O)Nc2ccc(F)c(Cl)c2)ccn1 [Example 122, 3-(3-chloro-4-fluorophenyl)-1-(2-cyanopyridin-4-yl)-1-((1,4,5,6-tetrahydropyrano[2,3-c]pyrazol-3-yl)methyl)urea] | 0.35 |  |  | > 100 |  | 
COc1cc(C)c(N(Cc2cc(C(F)(F)F)[nH]n2)C(=O)Nc2ccc(F)c(Cl)c2)c(C)c1 [Example 29, 3-(3-chloro-4-fluorophenyl)-1-(4-methoxy-2,6-dimethylphenyl)-1-((5-(trifluoromethyl)-1H-pyrazol-3-yl)methyl)urea] | > 1.1 |  |  | 12.2 | 6.9 | 
COc1ncc(N(Cc2cc(C#N)[nH]n2)C(=O)Nc2cccc(C(F)F)c2)cn1 [Example 180, 1-((5-cyano-1H-pyrazol-3-yl)methyl)-3-(3-(difluoromethyl)phenyl)-1-(2-methoxypyrimidin-5-yl)urea] | 0.064 |  |  | > 100 | 88.1 | 
O=C(Nc1cc(F)c(F)c(F)c1)c1ccc(F)c(S(=O)(=O)N2CCC(O)CC2)c1 [NVR, reference compound] |  | 3.6 |  |  |  | 0.34
COc1cc(N(Cc2cc(C(F)(F)F)[nH]n2)C(=O)Nc2ccc(F)c(C#N)c2)cnn1 [Example 163, 3-(3-cyano-4-fluorophenyl)-1-(6-methoxypyridazin-4-yl)-1-((5-(trifluoromethyl)-1H-pyrazol-3-yl)methyl)urea] | 0.007 |  |  | > 100 | 99 | 
N#Cc1cncc(N(Cc2n[nH]c3c2COCC3)C(=O)Nc2ccc(F)c(Cl)c2)c1 [Example 129, 3-(3-chloro-4-fluorophenyl)-1-(5-cyanopyridin-3-yl)-1-((1,4,6,7-tetrahydropyrano[4,3-c]pyrazol-3-yl)methyl)urea] | 0.06 |  |  | > 100 | 93.1 | 
COc1ncc(N(Cc2cc(C#N)[nH]n2)C(=O)Nc2ccc(F)c(C(F)(F)F)c2)cn1 [Example 215, 1-((5-cyano-1H-pyrazol-3-yl)methyl)-3-(4-fluoro-3-(trifluoromethyl)phenyl)-1-(2-methoxypyrimidin-5-yl)urea] | 0.02 |  |  | > 100 | 67 | 
COc1ncc(N(Cc2cc(C(F)(F)F)[nH]n2)C(=O)Nc2ccc(F)c(C#N)c2)cn1 [Example 154, 3-(3-cyano-4-fluorophenyl)-1-(2-methoxypyrimidin-5-yl)-1-((5-(trifluoromethyl)-1H-pyrazol-3-yl)methyl)urea] | 0.013 |  |  | > 100 | 73 | 
